# Results reported in PubChem BioAssay AID1259407 (Chemical Carcinogenesis Research Information System (CCRIS), 2018).
# Activity calls are given as the source filed them. No rule for the calls is given here.
# Tested on: CCRIS mutagenicity, Ames/micronucleus/aberration tests
# Test: CCRIS mutagenicity studies
# [1] = Test System: AMES SALMONELLA TYPHIMURIUM, Strain/Indicator: TA98, Metabolic Activation: RAT, LIVER, S-9, PHENOBARBITAL, Method: STANDARD PLATE
# [2] = Test System: AMES SALMONELLA TYPHIMURIUM, Strain/Indicator: TA100, Metabolic Activation: NONE, Method: STANDARD PLATE
# [3] = Test System: AMES SALMONELLA TYPHIMURIUM, Strain/Indicator: TA1537, Metabolic Activation: NONE, Method: STANDARD PLATE
# [4] = Test System: AMES SALMONELLA TYPHIMURIUM, Strain/Indicator: TA98, Metabolic Activation: NONE, Method: STANDARD PLATE
# [5] = Test System: AMES SALMONELLA TYPHIMURIUM, Strain/Indicator: TA98, Metabolic Activation: NONE, Method: PREINCUBATION
# [6] = Test System: AMES SALMONELLA TYPHIMURIUM, Strain/Indicator: TA100, Metabolic Activation: NONE, Method: PREINCUBATION
# [7] = Test System: AMES SALMONELLA TYPHIMURIUM, Strain/Indicator: TA1535, Metabolic Activation: NONE, Method: PREINCUBATION
# [8] = Test System: AMES SALMONELLA TYPHIMURIUM, Strain/Indicator: TA1537, Metabolic Activation: NONE, Method: PREINCUBATION
# [9] = Test System: AMES SALMONELLA TYPHIMURIUM, Strain/Indicator: TA1538, Metabolic Activation: NONE, Method: PREINCUBATION
# [10] = Test System: AMES SALMONELLA TYPHIMURIUM, Strain/Indicator: TA98, Metabolic Activation: RAT, LIVER, S-9, AROCLOR 1254, Method: STANDARD PLATE
# [11] = Test System: AMES SALMONELLA TYPHIMURIUM, Strain/Indicator: TA100, Metabolic Activation: RAT, LIVER, S-9, AROCLOR 1254, Method: STANDARD PLATE
structure (smiles),measurement,setting,value
c1cncc(-c2cccnc2)c1,mutagenic call,"Test System: AMES SALMONELLA TYPHIMURIUM, Strain/Indicator: TA97, Metabolic Activation: RAT, LIVER, S-9, PHENOBARBITAL, Method: STANDARD PLATE",inactive; negative
same,mutagenic call,[1],inactive; negative
same,mutagenic call,"Test System: AMES SALMONELLA TYPHIMURIUM, Strain/Indicator: TA100, Metabolic Activation: RAT, LIVER, S-9, PHENOBARBITAL, Method: STANDARD PLATE",active; positive
same,mutagenic call,"Test System: AMES SALMONELLA TYPHIMURIUM, Strain/Indicator: TA1535, Metabolic Activation: RAT, LIVER, S-9, PHENOBARBITAL, Method: STANDARD PLATE",inactive; negative
same,mutagenic call,"Test System: AMES SALMONELLA TYPHIMURIUM, Strain/Indicator: TA1537, Metabolic Activation: RAT, LIVER, S-9, PHENOBARBITAL, Method: STANDARD PLATE",inactive; negative
same,mutagenic call,"Test System: AMES SALMONELLA TYPHIMURIUM, Strain/Indicator: TA1538, Metabolic Activation: RAT, LIVER, S-9, PHENOBARBITAL, Method: STANDARD PLATE",active; positive
C1=Cc2c(ccc3nc4ccc5ccccc5c4cc23)CC1,mutagenic call,"Test System: AMES SALMONELLA TYPHIMURIUM, Strain/Indicator: TA98, Metabolic Activation: GUINEA PIG, LIVER, S-9, 3-METHYLCHOLANTHRENE, Method: STANDARD PLATE",active; positive
same,mutagenic call,"Test System: AMES SALMONELLA TYPHIMURIUM, Strain/Indicator: TA100, Metabolic Activation: GUINEA PIG, LIVER, S-9, 3-METHYLCHOLANTHRENE, Method: STANDARD PLATE",active; positive
C1=CC2OC2c2cccnc21 (stereo unspecified),mutagenic call,[2],inactive; negative
same,mutagenic call,"Test System: AMES SALMONELLA TYPHIMURIUM, Strain/Indicator: TA100, Metabolic Activation: RAT, LIVER, S-9, AROCLOR 1254 (10% OR 20%), Method: STANDARD PLATE",inactive; negative
CCCC(=O)Nc1snc2ccc(Cl)cc12,mutagenic call,[2],inactive; negative
same,mutagenic call,"Test System: AMES SALMONELLA TYPHIMURIUM, Strain/Indicator: TA100, Metabolic Activation: S-9, Method: STANDARD PLATE",inactive; negative
same,mutagenic call,[3],inactive; negative
same,mutagenic call,"Test System: AMES SALMONELLA TYPHIMURIUM, Strain/Indicator: TA1537, Metabolic Activation: S-9, Method: STANDARD PLATE",inactive; negative
COc1c2ccoc2c(OC)c2oc(=O)ccc12,mutagenic call,[4],inactive; negative
same,mutagenic call,[1],inactive; negative
CCN(CC)CCCN(c1ccccc1)C1Cc2ccccc2C1,mutagenic call,[5],inactive; negative
same,mutagenic call,"Test System: AMES SALMONELLA TYPHIMURIUM, Strain/Indicator: TA98, Metabolic Activation: S-9, Method: PREINCUBATION",inactive; negative
same,mutagenic call,[6],inactive; negative
same,mutagenic call,"Test System: AMES SALMONELLA TYPHIMURIUM, Strain/Indicator: TA100, Metabolic Activation: S-9, Method: PREINCUBATION",inactive; negative
same,mutagenic call,[7],inactive; negative
same,mutagenic call,"Test System: AMES SALMONELLA TYPHIMURIUM, Strain/Indicator: TA1535, Metabolic Activation: S-9, Method: PREINCUBATION",inactive; negative
same,mutagenic call,[8],inactive; negative
same,mutagenic call,"Test System: AMES SALMONELLA TYPHIMURIUM, Strain/Indicator: TA1537, Metabolic Activation: S-9, Method: PREINCUBATION",inactive; negative
same,mutagenic call,[9],inactive; negative
same,mutagenic call,"Test System: AMES SALMONELLA TYPHIMURIUM, Strain/Indicator: TA1538, Metabolic Activation: S-9, Method: PREINCUBATION",inactive; negative
same,mutagenic call,"Test System: E. COLI, Strain/Indicator: WP2 UVRA, Metabolic Activation: NONE, Method: PREINCUBATION",inactive; negative
same,mutagenic call,"Test System: E. COLI, Strain/Indicator: WP2 UVRA, Metabolic Activation: S-9, Method: PREINCUBATION",inactive; negative
c1ccc2nc3ccccc3cc2c1,mutagenic call,"Test System: AMES SALMONELLA TYPHIMURIUM, Strain/Indicator: TA97, Metabolic Activation: NONE, Method: STANDARD PLATE",inactive; negative
same,mutagenic call,"Test System: AMES SALMONELLA TYPHIMURIUM, Strain/Indicator: TA97, Metabolic Activation: RAT, LIVER, S-9, AROCLOR 1254, Method: STANDARD PLATE",inactive; negative
same,mutagenic call,[4],inactive; negative
same,mutagenic call,[10],inactive; negative
same,mutagenic call,[2],inactive; negative
same,mutagenic call,[11],inactive; negative
same,mutagenic call,[7],inactive; negative
same,mutagenic call,"Test System: AMES SALMONELLA TYPHIMURIUM, Strain/Indicator: TA1535, Metabolic Activation: RAT, LIVER, S-9, TETRACHLOROBIPHENYL, Method: PREINCUBATION",inactive; negative
same,mutagenic call,[8],inactive; negative
same,mutagenic call,"Test System: AMES SALMONELLA TYPHIMURIUM, Strain/Indicator: TA1537, Metabolic Activation: RAT, LIVER, S-9, TETRACHLOROBIPHENYL, Method: PREINCUBATION",active; positive
same,mutagenic call,[9],inactive; negative
same,mutagenic call,"Test System: AMES SALMONELLA TYPHIMURIUM, Strain/Indicator: TA1538, Metabolic Activation: RAT, LIVER, S-9, TETRACHLOROBIPHENYL, Method: PREINCUBATION",inactive; negative
ClC(Cl)(Cl)c1ccccc1,mutagenic call,"Test System: AMES SALMONELLA TYPHIMURIUM, Strain/Indicator: TA98, Metabolic Activation: HAMSTER, LIVER, S-9, AROCLOR 1254 (30%), Method: PREINCUBATION",active; positive
same,mutagenic call,[5],inactive; negative
same,mutagenic call,"Test System: AMES SALMONELLA TYPHIMURIUM, Strain/Indicator: TA98, Metabolic Activation: RAT, LIVER, S-9, AROCLOR 1254 (30%), Method: PREINCUBATION",active; positive
same,mutagenic call,"Test System: AMES SALMONELLA TYPHIMURIUM, Strain/Indicator: TA98, Metabolic Activation: RAT, LIVER, S-9, AROCLOR 1254, Method: PREINCUBATION",active; positive
same,mutagenic call,"Test System: AMES SALMONELLA TYPHIMURIUM, Strain/Indicator: TA100, Metabolic Activation: HAMSTER, LIVER, S-9, AROCLOR 1254 (30%), Method: PREINCUBATION",active; positive
same,mutagenic call,[6],active; positive
same,mutagenic call,"Test System: AMES SALMONELLA TYPHIMURIUM, Strain/Indicator: TA100, Metabolic Activation: RAT, LIVER, S-9, AROCLOR 1254 (30%), Method: PREINCUBATION",active; positive
same,mutagenic call,"Test System: AMES SALMONELLA TYPHIMURIUM, Strain/Indicator: TA100, Metabolic Activation: RAT, LIVER, S-9, AROCLOR 1254, Method: PREINCUBATION",active; positive
same,mutagenic call,"Test System: AMES SALMONELLA TYPHIMURIUM, Strain/Indicator: TA1535, Metabolic Activation: RAT, LIVER, S-9, AROCLOR 1254, Method: PREINCUBATION",active; positive
O=P(O)(O)OCC(O)CO (stereo unspecified),mutagenic call,[4],inactive; negative
same,mutagenic call,[10],inactive; negative
same,mutagenic call,[2],inactive; negative
same,mutagenic call,[11],inactive; negative
same,mutagenic call,"Test System: AMES SALMONELLA TYPHIMURIUM, Strain/Indicator: TA1535, Metabolic Activation: NONE, Method: STANDARD PLATE",inactive; negative
same,mutagenic call,"Test System: AMES SALMONELLA TYPHIMURIUM, Strain/Indicator: TA1535, Metabolic Activation: RAT, LIVER, S-9, AROCLOR 1254, Method: STANDARD PLATE",inactive; negative
same,mutagenic call,[3],inactive; negative
same,mutagenic call,"Test System: AMES SALMONELLA TYPHIMURIUM, Strain/Indicator: TA1537, Metabolic Activation: RAT, LIVER, S-9, AROCLOR 1254, Method: STANDARD PLATE",inactive; negative
same,mutagenic call,"Test System: AMES SALMONELLA TYPHIMURIUM, Strain/Indicator: TA1538, Metabolic Activation: NONE, Method: STANDARD PLATE",inactive; negative
same,mutagenic call,"Test System: AMES SALMONELLA TYPHIMURIUM, Strain/Indicator: TA1538, Metabolic Activation: RAT, LIVER, S-9, AROCLOR 1254, Method: STANDARD PLATE",inactive; negative
same,mutagenic call,"Test System: E. COLI, Strain/Indicator: WP2, Metabolic Activation: NONE, Method: STANDARD PLATE",inactive; negative
same,mutagenic call,"Test System: E. COLI, Strain/Indicator: WP2, Metabolic Activation: RAT, LIVER, S-9, AROCLOR 1254, Method: STANDARD PLATE",inactive; negative
